# Measurements: patent US20110269763A1, “CRTH2 receptor ligands for medicinal uses” (7TM Pharma A/S, priority 2004, published 2011)
# Target: T1, human CRTH2 (Homo sapiens, UniProt Q9Y5Y4, V204A)
# T1 sequence (Q9Y5Y4 1-395 V204A): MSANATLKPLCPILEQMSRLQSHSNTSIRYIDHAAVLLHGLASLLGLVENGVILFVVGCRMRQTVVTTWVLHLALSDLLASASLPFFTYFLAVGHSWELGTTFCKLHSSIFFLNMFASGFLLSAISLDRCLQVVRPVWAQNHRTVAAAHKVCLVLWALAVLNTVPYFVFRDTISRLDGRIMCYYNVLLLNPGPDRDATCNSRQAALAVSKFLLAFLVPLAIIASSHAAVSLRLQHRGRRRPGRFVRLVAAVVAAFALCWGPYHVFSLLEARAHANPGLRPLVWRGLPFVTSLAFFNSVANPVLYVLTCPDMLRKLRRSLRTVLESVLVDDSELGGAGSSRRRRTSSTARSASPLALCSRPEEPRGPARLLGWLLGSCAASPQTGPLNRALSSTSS
# Test: Receptor binding assay: [3H]PGD2 competition binding on whole COS-7 cells transiently transfected with CRTH2 (also stable HEK293 cells)
# Set-up: expressed in transfected cells; host or cells: COS-7 (transient, calcium phosphate)
# Conditions: competition with 0.1 nM [3H]PGD2, whole cells, 3 h at 4° C.
# In short: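 Whole COS-7 cells transiently transfected with human CRTH2 (calcium phosphate), or stable HEK293 cells, competed against 0.1 nM [3H]PGD2 in HBSS/10 mM HEPES with 1% DMSO, 3 h at 4 °C. Nonspecific binding with 10 μM PGD2; scintillation counting, duplicates. IC50 from curve fitting.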
row,IC50 [nM],SMILES
1,< 500,"O=C(O)COc1ccc(Br)cc1C(=O)c1cnn(-c2ccccc2OC(F)(F)F)c1 [D52, {4-Bromo-2-[1-(2-trifluoromethoxyphenyl)-1H-pyrazole-4-carbonyl]phenoxy}acetic acid]"
2,< 500,"O=C(O)COc1ccc(Br)cc1C(=O)c1cnn(-c2ccc(Cl)cc2)c1 [D17, 4-Bromo-2-[1-(4-chlorophenyl)-1H-pyrazole-4-carbonyl]phenoxyacetic acid]"
3,< 500,"COc1ccc(-n2cc(C(=O)c3cc(Br)ccc3OCC(=O)O)cn2)cc1 [D7, 4-Bromo-2-[1-(4-methoxyphenyl)-1H-pyrazole-4-carbonyl]phenoxyacetic acid]"
4,< 500,"CC(Oc1ccc(Br)cc1C(=O)c1cnn(-c2c(Cl)cccc2Cl)c1)C(=O)O (centres unmarked) [D39, 2-{4-Bromo-2-[1-(2,6-dichlorophenyl)-1H-pyrazole-4-carbonyl]phenoxy}propionic acid]"
5,< 500,"O=C(O)COc1ccc(Br)cc1C(=O)c1cnn(-c2ccc(C(F)(F)F)cc2)c1 [D81, {4-Bromo-2-[1-(4-trifluoromethylphenyl)-1H-pyrazole-4-carbonyl]phenoxy}acetic acid]"
6,< 500,"O=C(O)COc1ccc(Br)cc1CC1SC(=O)N(Cc2cccc(Cl)c2)C1=O (centres unmarked) [D144, 4-Bromo-2-[3-(3-chlorobenzyl)-2,4-dioxothiazolidin-5-ylmethyl]phenoxyacetic acid]"
7,< 500,"O=C(O)COc1ccc(Br)cc1C(=O)c1cnn(-c2cccc(Cl)c2)c1 [D15, 4-Bromo-2-[1-(3-chloro-phenyl)-1H-pyrazole-4-carbonyl]phenoxyacetic acid]"
8,< 500,O=C(O)COc1ccc(Br)cc1C=NNc1ccccn1 [D151]
9,< 500,"CC(Oc1ccc(Br)cc1C(=O)c1cnn(-c2ccccc2C(C)C)c1)C(=O)O (centres unmarked) [D79, 2-{4-Bromo-2-[1-(2-isopropylphenyl)-1H-pyrazole-4-carbonyl]phenoxy}propionic acid]"
10,< 500,"O=C(O)COc1ccc(-c2ccccc2)cc1C(=O)c1cnn(-c2ccccc2)c1 [D5, 3-(1-Phenyl-1H-pyrazole-4-carbonyl)biphenyl-4-yloxyacetic acid]"
11,< 500,"O=C(O)COc1ccc(Br)cc1C(=O)c1cnn(-c2c(Cl)cncc2Cl)c1 [D80, {4-Bromo-2-[1-(3,5-dichloropyridin-4-yl)-1H-pyrazole-4-carbonyl]phenoxy}acetic acid]"
12,< 500,"O=C(O)COc1ccc(Cl)cc1C(=O)c1cnn(-c2ccccc2)c1 [D10, [4-Chloro-2-(1-phenyl-1H-pyrazole-4-carbonyl)phenoxy]acetic acid]"
13,< 500,"O=C(O)COc1ccc(Br)cc1C(=O)c1cnn(-c2cccc(C(F)(F)F)c2)c1 [D25, 4-Bromo-2-[1-(3-trifluoromethylphenyl)-1H-pyrazole-4-carbonyl]phenoxyacetic acid]"
14,< 500,"CCc1cc(Br)ccc1-n1cc(C(=O)c2cc(Br)ccc2OC(C)C(=O)O)cn1 (centres unmarked) [D46, 2-{4-Bromo-2-[1-(4-bromo-2-ethylphenyl)-1H-pyrazole-4-carbonyl]phenoxy}propionic acid]"
15,< 500,"O=C(O)COc1ccc(Br)cc1-c1coc(Cc2ccc(F)cc2Cl)n1 [D90, {4-Bromo-2-[2-(2-chloro-4-fluorobenzyl)oxazol-4-yl]phenoxy}acetic acid]"
16,500 to 5000,"Nc1ccc(OCC(=O)O)c(C(=O)c2cnn(-c3ccccc3)c2)c1 [D66, [4-Amino-2-(1-phenyl-1H-pyrazole-4-carbonyl)phenoxy]acetic acid]"
17,< 500,"O=C(O)COc1ccc(Br)cc1C(=O)c1cc(-c2ccccc2)no1 [D97, [4-Bromo-2-(3-phenylisoxazole-5-carbonyl)phenoxy]acetic acid]"
18,< 500,"O=C(O)COc1ccc(Br)cc1-c1noc(-c2ccccc2Cl)n1 [D137, {4-Bromo-2-[5-(2-chlorophenyl)-[1,2,4]oxadiazol-3-yl]phenoxy}acetic acid]"
19,< 500,"CCOc1ccc(-c2nc(-c3cc(Br)ccc3OCC(=O)O)co2)cc1 [D87, {4-Bromo-2-[2-(4-ethoxyphenyl)oxazol-4-yl]phenoxy}acetic acid]"
20,< 500,"CCc1ccccc1-n1cc(C(=O)c2cc(Br)ccc2OCC(=O)O)cn1 [D18, 4-Bromo-2-[1-(2-ethylphenyl)-1H-pyrazole-4-carbonyl]phenoxyacetic acid]"
21,< 500,"O=C(O)COc1ccc(Br)cc1C(=O)c1cnn(-c2ccccn2)c1 [D6, 4-Bromo-2-(1-pyridin-2-yl-1H-pyrazole-4-carbonyl)phenoxyacetic acid]"
22,< 500,"COc1ccccc1-n1cc(C(=O)c2cc(Br)ccc2OCC(=O)O)cn1 [D60, {4-Bromo-2-[1-(2-methoxyphenyl)-1H-pyrazole-4-carbonyl]phenoxy}acetic acid]"
23,< 500,"O=C(O)COc1ccc(Br)cc1-c1noc(-c2ccccc2)n1 [D138, [4-Bromo-2-(5-phenyl-[1,2,4]oxadiazol-3-yl)phenoxy]acetic acid]"
24,< 500,"COc1ccc(OCC(=O)O)c(C(=O)c2cnn(-c3ccccc3)c2)c1 [D36, 4-Methoxy-2-[1-phenyl-1H-pyrazole-4-carbonyl]phenoxyacetic acid]"

# Same assay, conditions: receptor binding assay, Table 3
row,IC50 [nM],SMILES
1,< 500,"O=C(O)COc1ccc(Br)cc1-c1nc(Cc2cc(F)cc(F)c2)no1 [D117, {4-Bromo-2-[3-(3,5-difluoro-benzyl)-[1,2,4]oxadiazol-5-yl]-phenoxy}-acetic acid]"
2,< 500,"O=C(O)COc1ccc(Br)cc1-c1nc(Cc2ccccc2C(F)(F)F)no1 [D127, {4-Bromo-2-[3-(2-trifluoromethylbenzyl)-[1,2,4]oxadiazol-5-yl]phenoxy}-acetic acid]"
3,< 500,"O=C(O)COc1ccc(Br)cc1-c1nc(Cc2ccc(F)cc2)no1 [D116, {4-Bromo-2-[3-(4-fluoro-benzyl)-[1,2,4]oxadiazol-5-yl]-phenoxy}-acetic acid]"
4,< 500,"COc1cccc(Cc2noc(-c3cc(Br)ccc3OCC(=O)O)n2)c1 [D125, {4-Bromo-2-[3-(3-methoxybenzyl)-[1,2,4]oxadiazol-5-yl]phenoxy}acetic acid]"
5,< 500,"COc1ccc(-c2noc(-c3cc(Br)ccc3OCC(=O)O)n2)cc1 [D101, {4-Bromo-2-[3-(4-methoxy-phenyl)-[1,2,4]oxadiazol-5-yl]phenoxy}acetic acid]"
6,< 500,"O=C(O)COc1ccc(Br)cc1-c1nc(-c2ccc(Cl)cc2Cl)no1 [D129, {4-Bromo-2-[3-(2,4-dichlorophenyl)-[1,2,4]oxadiazol-5-yl]phenoxy}acetic acid]"
7,< 500,"O=C(O)COc1ccc(Br)cc1-c1nc(Cc2ccccc2)no1 [D115, [2-(3-Benzyl-[1,2,4]oxadiazol-5-yl)-4-bromo-phenoxy]-acetic acid]"

# Target: T1, human CRTH2
# Test: Functional antagonist BRET assay on HEK293 cells stably expressing human CRTH2-Rluc and GFP2-β-arr2
# Format: cell-based
# Set-up: expressed in transfected cells
# Conditions: BRET, antagonist incubated 15 minutes prior to agonist; read-out: Antag. IC50
# In short: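 Cells (2×10^6/mL in D-PBS with glucose) were preincubated 15 min with antagonist at 1% DMSO, then agonist and DeepBlueC were co-injected. Emission at 400 and 515 nm was read 5 s later, and the mBRET ratio (515/400 nm) was used to derive IC50 from concentration–response curves.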
row,IC50 [nM],SMILES
1,< 500,"O=C(O)COc1ccc(Br)cc1C(=O)c1cnn(-c2ccccc2OC(F)(F)F)c1 [D52, {4-Bromo-2-[1-(2-trifluoromethoxyphenyl)-1H-pyrazole-4-carbonyl]phenoxy}acetic acid]"
2,< 500,"O=C(O)COc1ccc(Br)cc1C(=O)c1cnn(-c2ccc(Cl)cc2)c1 [D17, 4-Bromo-2-[1-(4-chlorophenyl)-1H-pyrazole-4-carbonyl]phenoxyacetic acid]"
3,< 500,"COc1ccc(-n2cc(C(=O)c3cc(Br)ccc3OCC(=O)O)cn2)cc1 [D7, 4-Bromo-2-[1-(4-methoxyphenyl)-1H-pyrazole-4-carbonyl]phenoxyacetic acid]"
4,< 500,"CC(Oc1ccc(Br)cc1C(=O)c1cnn(-c2c(Cl)cccc2Cl)c1)C(=O)O (centres unmarked) [D39, 2-{4-Bromo-2-[1-(2,6-dichlorophenyl)-1H-pyrazole-4-carbonyl]phenoxy}propionic acid]"
5,< 500,"O=C(O)COc1ccc(Br)cc1C(=O)c1cnn(-c2ccc(C(F)(F)F)cc2)c1 [D81, {4-Bromo-2-[1-(4-trifluoromethylphenyl)-1H-pyrazole-4-carbonyl]phenoxy}acetic acid]"
6,< 500,"O=C(O)COc1ccc(Br)cc1CC1SC(=O)N(Cc2cccc(Cl)c2)C1=O (centres unmarked) [D144, 4-Bromo-2-[3-(3-chlorobenzyl)-2,4-dioxothiazolidin-5-ylmethyl]phenoxyacetic acid]"
7,< 500,"O=C(O)COc1ccc(Br)cc1C(=O)c1cnn(-c2cccc(Cl)c2)c1 [D15, 4-Bromo-2-[1-(3-chloro-phenyl)-1H-pyrazole-4-carbonyl]phenoxyacetic acid]"
8,> 5000,O=C(O)COc1ccc(Br)cc1C=NNc1ccccn1 [D151]
9,< 500,"CC(Oc1ccc(Br)cc1C(=O)c1cnn(-c2ccccc2C(C)C)c1)C(=O)O (centres unmarked) [D79, 2-{4-Bromo-2-[1-(2-isopropylphenyl)-1H-pyrazole-4-carbonyl]phenoxy}propionic acid]"
10,< 500,"O=C(O)COc1ccc(-c2ccccc2)cc1C(=O)c1cnn(-c2ccccc2)c1 [D5, 3-(1-Phenyl-1H-pyrazole-4-carbonyl)biphenyl-4-yloxyacetic acid]"
11,< 500,"O=C(O)COc1ccc(Br)cc1C(=O)c1cnn(-c2c(Cl)cncc2Cl)c1 [D80, {4-Bromo-2-[1-(3,5-dichloropyridin-4-yl)-1H-pyrazole-4-carbonyl]phenoxy}acetic acid]"
12,500 to 5000,"O=C(O)COc1ccc(Cl)cc1C(=O)c1cnn(-c2ccccc2)c1 [D10, [4-Chloro-2-(1-phenyl-1H-pyrazole-4-carbonyl)phenoxy]acetic acid]"
13,< 500,"O=C(O)COc1ccc(Br)cc1C(=O)c1cnn(-c2cccc(C(F)(F)F)c2)c1 [D25, 4-Bromo-2-[1-(3-trifluoromethylphenyl)-1H-pyrazole-4-carbonyl]phenoxyacetic acid]"
14,< 500,"CCc1cc(Br)ccc1-n1cc(C(=O)c2cc(Br)ccc2OC(C)C(=O)O)cn1 (centres unmarked) [D46, 2-{4-Bromo-2-[1-(4-bromo-2-ethylphenyl)-1H-pyrazole-4-carbonyl]phenoxy}propionic acid]"
15,< 500,"O=C(O)COc1ccc(Br)cc1-c1coc(Cc2ccc(F)cc2Cl)n1 [D90, {4-Bromo-2-[2-(2-chloro-4-fluorobenzyl)oxazol-4-yl]phenoxy}acetic acid]"
16,< 500,"Nc1ccc(OCC(=O)O)c(C(=O)c2cnn(-c3ccccc3)c2)c1 [D66, [4-Amino-2-(1-phenyl-1H-pyrazole-4-carbonyl)phenoxy]acetic acid]"
17,< 500,"O=C(O)COc1ccc(Br)cc1C(=O)c1cc(-c2ccccc2)no1 [D97, [4-Bromo-2-(3-phenylisoxazole-5-carbonyl)phenoxy]acetic acid]"
18,< 500,"O=C(O)COc1ccc(Br)cc1-c1noc(-c2ccccc2Cl)n1 [D137, {4-Bromo-2-[5-(2-chlorophenyl)-[1,2,4]oxadiazol-3-yl]phenoxy}acetic acid]"
19,> 5000,"CCOc1ccc(-c2nc(-c3cc(Br)ccc3OCC(=O)O)co2)cc1 [D87, {4-Bromo-2-[2-(4-ethoxyphenyl)oxazol-4-yl]phenoxy}acetic acid]"
20,< 500,"CCc1ccccc1-n1cc(C(=O)c2cc(Br)ccc2OCC(=O)O)cn1 [D18, 4-Bromo-2-[1-(2-ethylphenyl)-1H-pyrazole-4-carbonyl]phenoxyacetic acid]"
21,< 500,"O=C(O)COc1ccc(Br)cc1C(=O)c1cnn(-c2ccccn2)c1 [D6, 4-Bromo-2-(1-pyridin-2-yl-1H-pyrazole-4-carbonyl)phenoxyacetic acid]"
22,< 500,"COc1ccccc1-n1cc(C(=O)c2cc(Br)ccc2OCC(=O)O)cn1 [D60, {4-Bromo-2-[1-(2-methoxyphenyl)-1H-pyrazole-4-carbonyl]phenoxy}acetic acid]"
23,> 5000,"O=C(O)COc1ccc(Br)cc1-c1noc(-c2ccccc2)n1 [D138, [4-Bromo-2-(5-phenyl-[1,2,4]oxadiazol-3-yl)phenoxy]acetic acid]"
24,500 to 5000,"COc1ccc(OCC(=O)O)c(C(=O)c2cnn(-c3ccccc3)c2)c1 [D36, 4-Methoxy-2-[1-phenyl-1H-pyrazole-4-carbonyl]phenoxyacetic acid]"

# Same assay, conditions: functional antagonist assay, Table 3; read-out: Antag. IC50
row,IC50 [nM],SMILES
1,< 500,"O=C(O)COc1ccc(Br)cc1-c1nc(Cc2cc(F)cc(F)c2)no1 [D117, {4-Bromo-2-[3-(3,5-difluoro-benzyl)-[1,2,4]oxadiazol-5-yl]-phenoxy}-acetic acid]"
2,< 500,"O=C(O)COc1ccc(Br)cc1-c1nc(Cc2ccccc2C(F)(F)F)no1 [D127, {4-Bromo-2-[3-(2-trifluoromethylbenzyl)-[1,2,4]oxadiazol-5-yl]phenoxy}-acetic acid]"
3,< 500,"O=C(O)COc1ccc(Br)cc1-c1nc(Cc2ccc(F)cc2)no1 [D116, {4-Bromo-2-[3-(4-fluoro-benzyl)-[1,2,4]oxadiazol-5-yl]-phenoxy}-acetic acid]"
4,> 5000,"COc1cccc(Cc2noc(-c3cc(Br)ccc3OCC(=O)O)n2)c1 [D125, {4-Bromo-2-[3-(3-methoxybenzyl)-[1,2,4]oxadiazol-5-yl]phenoxy}acetic acid]"
5,< 500,"COc1ccc(-c2noc(-c3cc(Br)ccc3OCC(=O)O)n2)cc1 [D101, {4-Bromo-2-[3-(4-methoxy-phenyl)-[1,2,4]oxadiazol-5-yl]phenoxy}acetic acid]"
6,< 500,"O=C(O)COc1ccc(Br)cc1-c1nc(-c2ccc(Cl)cc2Cl)no1 [D129, {4-Bromo-2-[3-(2,4-dichlorophenyl)-[1,2,4]oxadiazol-5-yl]phenoxy}acetic acid]"
7,< 500,"O=C(O)COc1ccc(Br)cc1-c1nc(Cc2ccccc2)no1 [D115, [2-(3-Benzyl-[1,2,4]oxadiazol-5-yl)-4-bromo-phenoxy]-acetic acid]"
